# Patent US20210130473A1, “TGFßR1 INHIBITOR-ASGR ANTIBODY CONJUGATES AND USES THEREOF” (Silverback Therapeutics, Inc., priority 2019, published 2021)
# Key:
# [1] = system: TGFβ/SMAD Signaling Pathway SBE reporter cell line; experiment: TGFb reporter assay in HEK293 SBE-LUC reporter cells (luciferase); format: cell-based; settings: Homo sapiens, key of the table says IC50, read-out: EC50 (the source's name)
# Description: TGFβ/SMAD Signaling Pathway SBE reporter cell line was obtained from BPS Bioscience. Cells are passed, expanded, and stored in liquid nitrogen as per the supplier's instructions with the exception that growth media is changed to DMEM-C with Geneticin (DMEM supplemented with 10% fetal bovine serum, 1×NEAA, 1 mM Pyruvate, 2 mM glutamine, 50 μg/mL penicillin, 50 U/mL streptomycin and 400 μg/mL of Geneticin). The assay media is MEM supplemented with 0.5% fetal bovine serum, 1×NEAA, 1 mM Pyruvate, 50 μg/mL penicillin and 50 U/mL streptomycin.
# Compounds are assayed to measure their activity as ALK5 inhibitors.
# The HEK293 SBE-LUC reporter cells from Example 15 were grown in DMEM-C with Geneticin (DMEM supplemented with […], 1×NEAA, 1 mM Pyruvate, 2 mM glutamine, 50 μg/mL penicillin, 50 U/mL streptomycin and 400 ug/mL of Geneticin). The assay media was MEM supplemented with 0.5% fetal bovine serum, 1×NEAA, 1 mM Pyruvate, 50 μg/mL penicillin and 50 U/mL streptomycin.
# The HEK293 SBE-LUC reporter cells were harvested from the tissue culture flasks by incubation in small quantity of Versene at room temperature for three to five minutes after the media in the flask is removed and cells rinsed with PBS. Cells were counted and diluted in the assay media at ˜0.8×10^6 cells/mL then 50 uL/well were added to 96-well assay plate. Test samples (at desired concentrations diluted in assay media) were added to assay plate containing the 50 uL/well of cells (or media only), 50 uL per well, and incubated for 5-6 hours at 37° C. in a 5% CO2 humidified incubator. After that time, 15 uL of TGFb diluted to 12.5 ng/mL in the assay media was added to the plate. Controls included TGFb titration (from 25 to 0 ng/mL) without inhibitors, and media only (without cells, inhibitor or TGFb). Plates were incubated at 37° C. in a 5% CO2 humidified incubator for 18h. Luciferase substrate solution was subsequently added at 75 uL per well, incubated in dark with shaking at room temperature for 10 min, and luminescence was measured using a luminometer.
# [2] = biological target: T1, ALK5 (Homo sapiens, UniProt P36897); experiment: ALK5 enzyme inhibition assay (casein substrate, 10 uM ATP, 33P-ATP, filter-binding; Reaction Biology Corp); format: biochemical; settings: Table 11
# T1 construct: purchased Reaction Biology Corp (Malvern, Pa.)
# T1 sequence (P36897 34-503): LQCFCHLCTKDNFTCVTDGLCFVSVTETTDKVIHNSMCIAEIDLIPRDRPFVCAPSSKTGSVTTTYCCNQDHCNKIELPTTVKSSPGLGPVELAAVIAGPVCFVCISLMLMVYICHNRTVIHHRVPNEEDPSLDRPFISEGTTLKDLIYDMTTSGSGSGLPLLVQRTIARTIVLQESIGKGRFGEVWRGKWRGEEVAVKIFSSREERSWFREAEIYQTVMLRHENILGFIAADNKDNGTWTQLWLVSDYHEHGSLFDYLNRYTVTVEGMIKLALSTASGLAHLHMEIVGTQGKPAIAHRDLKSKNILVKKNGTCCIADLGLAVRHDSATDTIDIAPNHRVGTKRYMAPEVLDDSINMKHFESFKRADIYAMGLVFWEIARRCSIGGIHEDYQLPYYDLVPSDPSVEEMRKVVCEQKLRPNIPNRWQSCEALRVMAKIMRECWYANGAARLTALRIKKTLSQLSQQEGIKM
# Description: ALK5 enzyme inhibition assays were performed by Reaction Biology Corp (Malvern, Pa.). 1 mg/mL of peptide substrate (casein) and 10 uM ATP were prepared in a mixture of fresh reaction buffer. The kinase was delivered into the substrate solution which was gently mixed. Compounds in 100% DMSO were added to the kinase reaction mixture by Acoustic technology (Echo550; nanoliter range) and the mixture was incubated for 20 min at room temperature. ^33P-ATP (Specific activity 10 uCi/uL) was added into the reaction mixture to initiate the reaction and the reaction mixture was incubated for 2 hours at room temperature. Radioactivity was detected by filter-binding method and kinase activity data were expressed as the percent remaining kinase activity in test samples compared to vehicle (dimethyl sulfoxide) reactions. IC50 values and curve fits were obtained using Prism (GraphPad Software).
# [3] = system: HEK293 SBE-LUC reporter cells transfected to stably express full length human ASGR1; experiment: Cell reporter assay of anti-ASGR1-ALK5 inhibitor conjugates: TGFβ1-mediated luciferase expression; format: cell-based; settings: inhibition of TGFβ1-mediated luciferase expression, 6 h preincubation, human TGFβ1 1.6 ng/ml, further 18 h
# Description: Anti-ASGR1 antibodies conjugated to an ALK5 inhibitor were tested via a cell reporter assay. Briefly, HEK293 SBE-LUC reporter cells transfected to stably express full length human ASGR1 were seeded in 96 well plates at 40,000 cells/well in an assay media of minimum essential media containing 0.5% fetal bovine serum, 1% nonessential amino acids, 1% sodium pyruvate and 1% Pen/Strep. Anti-ASGR1-ALK5 inhibitor conjugates and controls were added to wells in a dose titration ranging from 5 μM to 0.064 nM to HEK293 SBE-LUC and ASGR1-HEK293 SBE-LUC cells. After incubating for 6 hours at 37° C. in a 5% CO2 environment, human TGFβ 1 (PeproTech Inc.) was added to a final concentration of 1.6 ng/ml followed by an additional 18 hour incubation under the same conditions. Luciferase STEADY-GLO® reagent (Promega Corporation) was added at 70 μl/well and incubated with shaking for 10 minutes. Luciferase activity was determined by measuring luminescence with an ENVISION® Plate Reader (Perkin-Elmer Inc.). Data were fit with a four-parameter non-linear regression to calculate IC50 values using Prism Software v7.04 (GraphPad Inc.).
IC50 [1],IC50 [2],Structure (SMILES),IC50 [3]
0.1 to 10 nM,0.1 to 50 nM,Cc1cccc(-c2nc(CNCc3ccccc3-c3ccccc3F)[nH]c2-c2ccc3ncnn3c2)n1 [Compound 38],–
10 to 100 nM,0.1 to 50 nM,Cc1cccc(-c2nc(CNCc3ccccc3-c3cc(F)cc(F)c3)[nH]c2-c2ccc3ncnn3c2)n1 [Compound 39],–
10 to 100 nM,100 to 1000 nM,Cc1cccc(-c2nc(CNCc3ccccc3-c3ccccn3)[nH]c2-c2ccc3ncnn3c2)n1 [Compound 40],–
0.1 to 10 nM,50 to 100 nM,Cc1cccc(-c2nc(CNCc3ccccc3-c3cccnc3)[nH]c2-c2ccc3ncnn3c2)n1 [Compound 41],–
10 to 100 nM,100 to 1000 nM,Cc1cccc(-c2nc(CNCc3ccccc3-c3ccncc3)[nH]c2-c2ccc3ncnn3c2)n1 [Compound 42],–
100 to 1000 nM,100 to 1000 nM,Cc1cccc(-c2nc(CNCc3ccccc3C3CCCCC3)[nH]c2-c2ccc3ncnn3c2)n1 [Compound 43],–
10 to 100 nM,100 to 1000 nM,Cc1cccc(-c2nc(CNCc3ccccc3C3CCCC3)[nH]c2-c2ccc3ncnn3c2)n1 [Compound 44],–
0.1 to 10 nM,50 to 100 nM,Cc1cccc(-c2nc(CNCc3cccc(C)c3C)[nH]c2-c2ccc3ncnn3c2)n1 [Compound 45],–
0.1 to 10 nM,50 to 100 nM,COc1cccc(CNCc2nc(-c3cccc(C)n3)c(-c3ccc4ncnn4c3)[nH]2)c1C [Compound 46],–
0.1 to 10 nM,0.1 to 50 nM,Cc1cccc(-c2nc(CNCc3cccc(Cl)c3C)[nH]c2-c2ccc3ncnn3c2)n1 [Compound 47],–
10 to 100 nM,0.1 to 50 nM,Cc1cccc(-c2nc(CNCc3cccc(C)c3-c3ccccc3)[nH]c2-c2ccc3ncnn3c2)n1 [Compound 48],–
10 to 100 nM,100 to 1000 nM,Cc1cccc(-c2nc(CNCc3cccc(-c4ccccc4)c3C)[nH]c2-c2ccc3ncnn3c2)n1 [Compound 49],–
10 to 100 nM,100 to 1000 nM,Cc1cccc(CNCc2nc(-c3cccc(C)n3)c(-c3ccc4ncnn4c3)[nH]2)c1 [Compound 50],–
100 to 1000 nM,100 to 1000 nM,Cc1cccc(-c2nc(CNCc3cccc(-c4ccccc4)c3)[nH]c2-c2ccc3ncnn3c2)n1 [Compound 51],–
0.1 to 10 nM,50 to 100 nM,Cc1cccc(-c2nc(CNCCc3ccccc3)[nH]c2-c2ccc3ncnn3c2)n1 [Compound 52],–
0.1 to 10 nM,0.1 to 50 nM,Cc1cccc(-c2nc(CNCc3ccccc3Oc3ccccc3)[nH]c2-c2ccc3ncnn3c2)n1 [Compound 53],–
0.1 to 10 nM,50 to 100 nM,Cc1cccc(-c2nc(CNCc3ccccc3Oc3cccnc3)[nH]c2-c2ccc3ncnn3c2)n1 [Compound 54],–
0.1 to 10 nM,0.1 to 50 nM,Cc1cccc(-c2nc(CNCCc3ccccc3F)[nH]c2-c2ccc3ncnn3c2)n1 [Compound 59],–
0.1 to 10 nM,0.1 to 50 nM,Cc1cccc(-c2nc(CNCCc3c(F)cccc3F)[nH]c2-c2ccc3ncnn3c2)n1 [Compound 60],13.4 nM
0.1 to 10 nM,0.1 to 50 nM,Cc1cccc(-c2nc(CNCCc3cccc(F)c3)[nH]c2-c2ccc3ncnn3c2)n1 [Compound 61],–

IC50 [1],IC50 [2],Structure (SMILES),IC50 [3]
0.1 to 10 nM,100 to 1000 nM,Cc1cccc(-c2nc(CNCCc3ccc(F)cc3)[nH]c2-c2ccc3ncnn3c2)n1 [Compound 62],–
0.1 to 10 nM,100 to 1000 nM,Cc1cccc(-c2nc(CNCCc3ccc(F)cc3F)[nH]c2-c2ccc3ncnn3c2)n1 [Compound 63],–
0.1 to 10 nM,100 to 1000 nM,Cc1cccc(-c2nc(CNCCCc3ccccc3)[nH]c2-c2ccc3ncnn3c2)n1 [Compound 64],–
0.1 to 10 nM,100 to 1000 nM,Cc1cccc(-c2nc(CNCCOc3ccccc3)[nH]c2-c2ccc3ncnn3c2)n1 [Compound 65],–
0.1 to 10 nM,100 to 1000 nM,Cc1cccc(-c2nc(CNCCNc3ccccc3)[nH]c2-c2ccc3ncnn3c2)n1 [Compound 66],–
0.1 to 10 nM,50 to 100 nM,Cc1cccc(-c2nc(CNCCN(C)c3ccccc3)[nH]c2-c2ccc3ncnn3c2)n1 [Compound 67],–
10 to 100 nM,0.1 to 50 nM,Cc1cccc(-c2nc(CNCc3ccccc3-c3ccccc3)[nH]c2-c2ccc3ncccc3n2)n1 [Compound 68],–
100 to 1000 nM,100 to 1000 nM,Cc1cccc(-c2nc(CNCc3ccccc3-c3ccccc3)[nH]c2-c2ccnc3ccccc23)n1 [Compound 69],–
100 to 1000 nM,0.1 to 50 nM,Cc1cccc(-c2nc(CNCc3ccccc3-c3ccccc3)[nH]c2-c2ccc3c(c2)OCO3)n1 [Compound 71],–
10 to 100 nM,0.1 to 50 nM,Cc1cccc(-c2nc(CNCCc3c(F)cccc3F)[nH]c2-c2ccc3c(c2)OCO3)n1 [Compound 81],–
0.1 to 10 nM,0.1 to 50 nM,Cc1cccc(-c2nc(CNCCc3c(F)cccc3F)[nH]c2-c2ccc3nccnc3c2)n1 [Compound 82],–
0.1 to 10 nM,50 to 100 nM,Cc1cccc(-c2nc(CNCc3ccccc3C)[nH]c2-c2ccc3ncccc3n2)n1 [Compound 83],–
0.1 to 10 nM,100 to 1000 nM,COc1ccccc1CCNCc1nc(-c2cccc(C)n2)c(-c2ccc3ncccc3n2)[nH]1 [Compound 84],–
0.1 to 10 nM,50 to 100 nM,Cc1cccc(-c2nc(CNCCN(C)c3ccccc3)[nH]c2-c2ccc3ncccc3n2)n1 [Compound 85],–
0.1 to 10 nM,0.1 to 50 nM,Cc1cccc(-c2nc(CNCc3ccccc3C)[nH]c2-c2ccc3nccnc3c2)n1 [Compound 86],–
0.1 to 10 nM,0.1 to 50 nM,COc1ccccc1CCNCc1nc(-c2cccc(C)n2)c(-c2ccc3nccnc3c2)[nH]1 [Compound 87],–
0.1 to 10 nM,0.1 to 50 nM,Cc1cccc(-c2nc(CNCCN(C)c3ccccc3)[nH]c2-c2ccc3nccnc3c2)n1 [Compound 88],–
0.1 to 10 nM,50 to 100 nM,Cc1cccc(-c2nc(CNCc3ccccc3)[nH]c2-c2ccc3ncccc3c2)n1 [Compound 90],–
10 to 100 nM,100 to 1000 nM,Cc1cccc(-c2nc(CNCc3ccccc3-c3ccccc3)[nH]c2-c2ccc3ncccc3c2)n1 [Compound 91],–
